Measured values from EP4772509A1, “KINESIN KIF18A INHIBITOR, AND APPLICATION THEREOF” (Shanghai Apeiron Therapeutics Company Limited, priority 2023, dated 2025).
Like-named read-outs stand apart in the source and are kept apart here.

Key:
[1] = molecular target: T1, Human KIF18A (amino acid sequence 1-417) (Homo sapiens, UniProt Q8NI77); experiment: Enzymatic activity test (ADP-Glo, microtubule-stimulated ATPase); assay type: biochemical; conditions: 60 µg/mL microtubules, 25 µM ATP, 2.5 nM KIF18A protein, 120 min at ambient temperature, chemiluminescence; read-out: KIF18A IC50
T1 construct: purchased Viva Biotech (Shanghai) Ltd
T1 sequence (Q8NI77 1-417): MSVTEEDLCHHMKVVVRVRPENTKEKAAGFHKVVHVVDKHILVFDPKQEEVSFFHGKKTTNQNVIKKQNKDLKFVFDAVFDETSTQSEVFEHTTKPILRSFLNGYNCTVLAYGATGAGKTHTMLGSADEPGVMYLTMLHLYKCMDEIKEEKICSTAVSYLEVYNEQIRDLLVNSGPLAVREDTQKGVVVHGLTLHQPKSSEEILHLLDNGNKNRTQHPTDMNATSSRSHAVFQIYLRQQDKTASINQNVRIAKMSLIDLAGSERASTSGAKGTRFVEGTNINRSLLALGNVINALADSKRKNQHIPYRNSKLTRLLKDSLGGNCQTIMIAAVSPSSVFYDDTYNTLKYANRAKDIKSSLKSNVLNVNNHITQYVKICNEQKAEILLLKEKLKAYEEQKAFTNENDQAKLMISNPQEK
Experimental: Materials: Human KIF18A (amino acid sequence 1-417) was purchased from Viva Biotech (Shanghai) Ltd.; the ADP-Glo™ protein kinase kit was acquired from Promega, USA; tubulin was sourced from Cytoskeleton, USA; and the 384-well assay plate and Envision multifunctional microplate reader were obtained from PerkinElmer, USA.
Enzymatic Activity Test: The compound powder was dissolved in DMSO to prepare a stock solution of 10 mM. Then gradient dilution was performed for the compounds in the microplate to achieve a final concentration of 0-10 µM. Then, 2.5 µL each of tubulin, compound, ATP, and KIF18A protein were added to the microplate in sequence for reaction at ambient temperature for 120 min. The final concentrations in the enzyme reaction were 60 µg/mL for microtubules, 25 µM for ATP, and 2.5 nM for KIF18A protein. After the enzyme reaction, 10 µL of ADP-GLO reaction reagent was added to each well and incubated at room temperature for 30 min. After that, 20 µL of detection reagent was added to each well and incubated at room temperature for 30 min in the dark. Finally, chemiluminescence detection was performed using the PerkinElmer Envision.

HT29 cells = experiment: CyQuant cell proliferation activity test; assay type: cell-based; conditions: HT29 at 2000 cells per well, 3 days, 0.2% DMSO, XLFIT
Experimental: Materials and Cells: HT29 cells were purchased from Nanjing Cobioer Biosciences Co., Ltd.; RPMI-1640 medium, fetal bovine serum, Trypsin-EDTA (0.25%), 96-well plates, and CyQuant reagents were purchased from ThermoFisher (USA); DMSO was purchased from SIGMA (USA).
Cell Culture: HT29 cells were cultured with RPMI-1640 containing 10% fetal bovine serum under the condition of 37°C and 5% CO2. Only cells in the logarithmic growth phase could be used for the test.
Cell Proliferation Activity Test: CyQuant reagent was used to detect the proliferation inhibitory activity of compounds on HT29 cells. The cell density was adjusted, and 100 µL per well was inoculated into a 96-well plate (HT29 at 2000 cells per well), then incubated overnight at 37°C and 5% CO2. Add compounds of various target concentrations (initial concentration of 3000 nM, 3-fold dilution, 9 concentration gradients), and make the DMSO content 0.2%. The cell plate was incubated at 37°C in 5% CO2 for 3 days. CyQuant reagent was added and incubated for 1 h. The plates were read by Envision, and IC50 was calculated using XLFIT.

OVCAR3 cells = experiment: Cell proliferation activity test (CyQUANT Direct); assay type: cell-based; conditions: 3 days, 0.2% DMSO, CyQUANT fluorescence
Experimental: Materials and Cells: OVCAR3 cells were purchased from Nanjing Cobioer Biosciences Co., Ltd. RPMI-1640 medium, fetal bovine serum, and the CyQUANT Direct Cell Proliferation Assay kit were purchased from Thermo Fisher Scientific, USA; 96-well cell culture plates were sourced from Corning, USA.
Cell Culture: OVCAR3 cells were cultured with RPMI-1640 medium containing 10% fetal bovine serum and incubated in a 5% CO2 incubator at 37°C. Only cells in the logarithmic growth phase could be used for the test.
OVCAR3 cells were inoculated into a 96-well cell culture plate at 90 µL per well and incubated overnight in a 5% CO2 incubator at 37°C. The compound powder was dissolved in DMSO to prepare a stock solution of 10 mM. Then gradient dilution was performed for the compounds in the microplate to achieve a final concentration of 0-10 µM. 10 µL of cell culture medium containing compounds was added to each well to make the final DMSO content 0.2%. The cell plates were incubated in a 5% CO2 incubator at 37°C for 3 days. 100 µL of CyQUANT detection reagent was added to each well, reacted at 37°C for 60 min, and fluorescence detection was performed using the PerkinElmer Envision.

Row | Molecule | IC50 [1] [nM] | IC50 (HT29 cells; read-out: HT-29 IC50) [nM] | IC50 (OVCAR3 cells) [nM] | IC50 (HT29 cells; Homo sapiens, HT-29, 72 h) [nM] | IC50 (OVCAR3 cells; Homo sapiens, OVCAR-3, 72 h) [nM]
1 | N-(1^4,1^4,5^1,5^1-tetrafluoro-2^6-methyl-4-dioxo-5^2,5^3-dihydro-5^1H-3-aza-2(2,4)-pyrimidin-1(1,3),6(1,4)-dipiperidin-5(4,5)-benzofurancyclononane-8-en-5^7-yl)-ethanesulfonamide [Example 20] | 410 | 69 | 57 | – | –
2 | Cc1cc2nc(n1)N1CCC(F)(F)C(CCCc3ccn(c(=O)c3)-c3cc(NS(=O)(=O)CCO)ccc3C(=O)N2)C1 (stereo not drawn) [Example 52, N-(1^4,1^4-difluoro-2^6-methyl-6^2,4-dioxo-6^1,6^2-dihydro-3-aza-2(2,4)-pyrimidin-6(1,4)-pyridin-1(1,3)-piperidin-5(1,2)-phenylheterocyclononane-5^4-yl)-2-hydroxyethane-1-sulfonamide] | 555 | – | – | > 3000 | > 3000
3 | CON(C)C(=O)c1cc2c(cc1NS(=O)(=O)CCO)N1CCC(C/C=C/C3CN(CCC3(F)F)c3nc(C)cc(n3)-c3cn-2nn3)CC1 (stereo not drawn) [Example 90, (3^4Z,7E)-1^4,1^4-difluoro-4^4-((2-hydroxyethyl)sulfonamido)-N-methoxy-N,2^6-dimethyl-3^1H-2(2,4)-pyrimidin-1(1,3),5(1,4) -dipiperidin-3(4,1)-triazole-4(1,2)-benzocyclooct-7-en-45-carboxamide] | 274 | – | – | 333 | 136
4 | Cc1cc2nc(n1)N1CCC(F)(F)C(/C=C/CC3CCN(CC3)c3cc(NS(=O)(=O)CCO)c(C(=O)O)cc3-n3cc-2nn3)C1 (stereo not drawn) [Example 91, 1^4,1^4-difluoro-4^4-((2-hydroxyethyl)sulfonamido)-2^6-methyl-3^1H-2(2,4)-pyrimidin-1(1,3),5(1,4)-dipiperidin-3(4,1)-triaz ole-4(1,2)-benzocyclooct-7-en-4^5 carboxylic acid] | 37 | – | – | > 3000 | > 3000
5 | Cc1cc2nc(n1)N1CCC(F)(F)C(CCCC3=CC=C(S3)c3cc(NS(=O)(=O)CCO)ccc3C(=O)N2)C1 (stereo not drawn) [Example 58, N-(1^4,1^4-difluoro-2^6-methyl-4-oxo-3-aza-2(2,4)-pyrimidin-1(1,3)-piperidin-6(2,5)-thiophene-5(1,2)-benzoazacyclononane-5^4-yl)-2-hydroxyethane-1-sulfonamide] | 67 | – | – | 42 | 116
6 | Cc1cc2nc(n1)N1CCC(F)(F)C(/C=C/CC3CCN(CC3)c3cc(NS(=O)(=O)CCO)c4c(c3C(=O)N2)CCNC4=O)C1 (stereo not drawn) [Example 17, N-(6^4,6^4-difluoro-5^6-methyl-2^1,3-dioxo-2^1,2^2,2^3,2^4-tetrahydro-4-aza-2(6,5)-isoquinoline-5(4,2)-pyrimidin-1(1,4),6(1,3)-dipiperidinylcyclononane-7-en-2^8-yl)-2-hydroxyethane-1-sulfonamide] | 52 | – | – | 105 | 96
7 | Cc1cc2nc(n1)N1CCC(F)(F)C(/C=C\CC3CCN(CC3)c3cc(NS(=O)(=O)C(C)(C)CO)c4c(c3C(=O)N2)CCC4=O)C1 (stereo not drawn) [Example 12, (Z)-N-(1^4,1^4-difluoro-2^6-methyl-5^1,4-dioxo-5^2,5^3-dihydro-5^1hydro-3-aza-2(2,4)-pyrimidin-1(1,3),6(1,4)-dipiperidin-5(4, 5)-indenocyclonofin-8-en-5^7-yl)-1-hydroxy-2-methylpropane-2-sulfonamide] | 172 | – | – | 165 | 96

Continued, values first:

Row | IC50 [1] [nM] | IC50 (HT29 cells; read-out: HT-29 IC50) [nM] | IC50 (OVCAR3 cells) [nM] | IC50 (HT29 cells; Homo sapiens, HT-29, 72 h) [nM] | IC50 (OVCAR3 cells; Homo sapiens, OVCAR-3, 72 h) [nM] | Molecule
8 | 144 | 74 | 72 | – | – | COc1cc2nc(n1)N1CCC(F)(F)C(CCCc3ccc(cc3)-c3cc(NS(=O)(=O)CCO)ccc3C(=O)N2)C1 (single isomer, unassigned) [Example 51B, N-(1^4,1^4-difluoro-2^6-methoxy-4-oxo-3-aza-2(2,4)-pyrimidin-1(1,3)-piperidin-5(1,2),6(1,4)-dibenzylcyclononane-5^4-yl)-2-hydroxyethane-1-sulfonamide]
9 | 9 | 192 | 112 | – | – | COc1cc2nc(n1)N1CCC(F)(F)C(CCCc3ccc(cc3)-c3cc(NS(=O)(=O)CCO)ncc3C(=O)N2)C1 (single isomer, unassigned) [Example 56B, N-(1^4,1^4-difluoro-2^6-methoxy-4-oxo-3-aza-2(2,4)-pyrimidin-5(3,4)-pyridin-1(1,3)-piperidin-6(1,4)-benzoazacyclononane-5^6-yl)-2-hydroxyethane-1-sulfonamide]
10 | 43 | 25 | 25 | – | – | Cc1cc2nc(n1)N1CCC(F)(F)C(C=CCC3CCN(CC3)c3cc(NS(=O)(=O)CCO)c4c(c3C(=O)N2)CCC4=O)C1 (single isomer, unassigned) [Example 2C, N-(1^4,1^4-difluoro-2^6-methyl-5^1,4-dioxo-5^2,5^3-dihydro-5^1H-3-aza-2(2,4)-pyrimidin-1(1,3),6(1,4)-dipiperidin-5(4,5)-indenoheterocyclonon-8-en-5^7-yl)-2-hydroxyethane-1-sulfonamide]
11 | 405 | 164 | 173 | – | – | Methyl(3^4Z,7Z)-1^4,1^4-difluoro-4^4-((2-hydroxyethyl)sulfonamido)-2^6-methyl 3^1H-2(2,4)-pyrimidin-1(1,3),5(1,4)-dipiperidin-3(4,1)-triazole-4(1,2)-benzocyclooct-7-en-4^5 carboxylate [Example 92B]
12 | 107 | – | – | 39 | 45 | COc1cc2nc(n1)N1CCC(F)(F)C(CCCc3ccc(cc3)-c3cc(NS(=O)(=O)CCO)ccc3C(=O)N2)C1 (single isomer, unassigned) [Example 51A, N-(1^4,1^4-difluoro-2^6-methoxy-4-oxo-3-aza-2(2,4)-pyrimidin-1(1,3)-piperidin-5(1,2),6(1,4)-dibenzylcyclononane-5^4-yl)-2-hydroxyethane-1-sulfonamide]
13 | > 3000 | 2790 | 2790 | – | – | Cc1cc2nc(n1)N1CCC(F)(F)C(/C=C\CC3CCN(CC3)c3cc(NS(=O)(=O)CCO)c4ccccc4c3C(=O)N2)C1 (single isomer, unassigned) [Example 1A, (cis)-N-(1^4,1^4-difluoro-2^6-methyl-4-oxo-3-aza-2(2,4)-pyrimidin-1(1,3),6(1,4)-dipiperidin-5(1,2)-naphthacyclonon-8-en-5^4-yl)-2-hydroxyethane-1-sulfonamide]
14 | 1060 | 1020 | 1020 | – | – | Cc1cc2nc(n1)N1CCC(F)(F)C(/C=C/CC3CCN(CC3)c3cc(NS(=O)(=O)CCO)c4ccccc4c3C(=O)N2)C1 (single isomer, unassigned) [Example 1C, (trans)-N-(1^4,1^4-difluoro-2^6-methyl-4-oxo-3-aza-2(2,4)-pyrimidin-1(1,3),6(1,4)-dipiperidin-5(1,2)-naphthacyclonon-8-en-5 ^4-yl)-2-hydroxyethane-1-sulfonamide]
